The structures appear in SMILES notation. In brackets after ≈: the same amount, converted by molar mass. Several values for one entry are separate records, joined by “and”; a condition that tells them apart may be missing. Equal entries are not always repeated. Where two headings read alike, the source gives them in different places. Bounds are passed on as bounds.

As a reminder, the IC50 is the concentration needed to halve the response being measured. As usually defined, the fraction remaining is the share of the starting amount still present when the sample was taken.

Data set [1] is described as follows: in vitro. The note with it: human, 24 h.
The subject of data set [2] is cell wall responsive iniBAC promoter (piniB-LUX reporter strain). The data set is classed as cell-based, Mycobacterium tuberculosis.
The subject of data set [3] is Mtb H37Rv WT. The data set is described as follows: microbe, parasite or virus in culture. Type of data set: cell-based. Particulars: Mycobacterium tuberculosis.
In data set [4] the test system is DNA damage responsive recA and radA reporters. The data set is classed as cell-based, Mycobacterium tuberculosis.
Data set [5] is described as follows: Microsomal stability, mouse. The note with it: liver microsomes of female mouse, read-out: % Remaining after 2 h incubation Mouse. Type of data set: in vitro ADME. How it is done: (§1) % Remaining after 2 h incubation
(§2) Compound Chemical Structure
(§3) Table S1. Microsomal stability of some pyrazolo[1,5-a]pyrimidin-7(4H)-one derivatives
(§4) Microsomal stability was tested in microsomes from liver of female mouse (M9566 from Sigma-Aldrich)a or microsomes
(§5) from human liver (M0317 from Sigma-Aldrich)b.
(Liver microsomes are a subcellular fraction often used to study metabolism.)

Data set [6] concerns Mtb H37Rv. Put plainly: microbe, parasite or virus in culture. Particulars: for MIC: Mycobacterium tuberculosis, H37RV. Type of data set: cell-based, Mycobacterium tuberculosis.
The test system of data set [7] is iron uptake of Mtb H37Rv. Put plainly: 55Fe iron uptake by Mtb. The data set is classed as cell-based, Mycobacterium tuberculosis. The note with it: 55Fe-labelled medium; 1 at 10 μM, DFO at 39 μM.
Data set [8] can be described thus: Microsomal stability, human. Type of data set: in vitro ADME. Particulars: human liver microsomes, read-out: % Remaining after 2 h incubation Human. How it is done: as §1, §2, §3, §4, §5
In data set [9] the test system is Mtb strain H37Rv. Put plainly: MIC against Mtb H37Rv under various media/carbon sources. Type of data set: cell-based. The note with it: Mycobacterium tuberculosis.
Data set [10] concerns Mtb H37Rv. The data set is described as follows: MIC under iron-depleted (DFO) or iron-replete (FeCl3) conditions. Type of data set: cell-based, Mycobacterium tuberculosis.
Data set [11] relates to J774 cells. Put plainly: Murine macrophage cytotoxicity (luminescence-based). The note with it: Mus musculus; murine macrophage cell line J774, 24 h; read-out: IC50 against J774 cells.
The test system of data set [12] is intramacrophage Mtb H37Rv. The data set is described as follows: Ex vivo efficacy against intracellular Mtb in J774 macrophages. The data set is classed as cell-based, Mycobacterium tuberculosis.
Setting [13] is: Cytotoxicity (IC50) Galactose, HepG2 cells in DMEM/10% FBS with galactose.
The mark [14] stands for this setting: Cytotoxicity (IC50) Glucose, HepG2 cells in DMEM/10% FBS supplemented with glucose.
Setting [15] is: pH 6, read-out: MIC nitrate/butyrate.

Regarding `Cc1nn2c(=O)cc(-c3ccccc3)[nH]c2c1-c1ccccc1` [Compound 1, 2-Methyl-3,5-diphenylpyrazolo[1,5-a]pyrimidin-7(4H)-one], the 50% inhibitory concentration (IC50) in [1] (setting [13]) and in data set [1] (setting [14]) was above 100 µM each time. Besides, in data set [2], the “reporter gene assay cell wall” value was “no”. The MIC in data set [3] worked out at 1.2 µM (≈ 0.362 µg/mL); in [6] (read-out: MIC in 7H9 ADC) it was 12.5 µM (≈ 3.77 µg/mL); in [6] (read-out: MIC in 7H9 GCas) it was 3.12 µM (≈ 0.94 µg/mL); in data set [9] (GAST/Fe, read-out: MIC GAST), 2.3 µM (≈ 0.693 µg/mL); in data set [9] (setting [15]), 12.5 µM (≈ 3.77 µg/mL); in data set [9] (read-out: MIC 7H9), 12.5 µM (≈ 3.77 µg/mL). Besides, the MIC in [9] (read-out: MIC Chol) was found to be 9.4 µM (≈ 2.83 µg/mL); in [9] (read-out: MIC GBSA/DBSA) it was 12.5 µM (≈ 3.77 µg/mL). Moreover, in data set [4], the “reporter gene assay DNA damage” value was “no”. Also, the fraction remaining at 2 h in data set [5] is 61%; in [8] it was 66%. Moreover, the “effect on iron uptake” value in [7] was “did not inhibit iron uptake”.

`COc1ccc(-c2cc(=O)n3nc(C)c(-c4ccc(F)cc4)c3[nH]2)cc1` [Compound 4, 3-(4-Fluorophenyl)-5-(4-methoxyphenyl)-2-methylpyrazolo[1,5-a]pyrimidin-7(4H)-one, reference compound]: in data set [2], the “reporter gene assay cell wall” value is recorded as “no”. Moreover, the “increase in potency under iron-depleted conditions (MIC ratio)” value (from here on “increase in potency … (MIC ratio)”) in data set [10] is at most 2 fold. The MIC in data set [3] stood at 1.56 µM (≈ 0.545 µg/mL); in data set [6] (read-out: MIC in 7H9 ADC) it was 9.38 µM (≈ 3.28 µg/mL); in data set [6] (read-out: MIC in 7H9 GCas), 3.12 µM (≈ 1.09 µg/mL); in data set [9] (GAST/Fe, read-out: MIC GAST), 3.13 µM (≈ 1.09 µg/mL); in data set [9] (setting [15]), 6.25 µM (≈ 2.18 µg/mL); in data set [9] (read-out: MIC 7H9) it was 12.5 µM (≈ 4.37 µg/mL). The MIC in data set [9] (read-out: MIC Chol) worked out at 12.5 µM (≈ 4.37 µg/mL); in data set [9] (read-out: MIC GBSA/DBSA) it was 9.4 µM (≈ 3.28 µg/mL). Besides, the “reporter gene assay DNA damage” value in [4] is on record as “no”.

With `Cc1nn2c(=O)cc(-c3ccc(F)c(F)c3)[nH]c2c1-c1ccccc1` [Compound P19, 5-(3,4-Difluorophenyl)-2-methyl-3-phenylpyrazolo[1,5-a]pyrimidin-7(4H)-one], the half-inhibitory concentration (IC50) is 58.9 µM in [1] (setting [13]), above 100 µM in [1] (setting [14]) and 29.6 ± 1.2 µM in [11]. Moreover, the “reporter gene assay cell wall” value in [2] is recorded as “no”. In addition, the “increase in potency … (MIC ratio)” value in [10] is at most 2 fold. Besides, the MIC in data set [3] worked out at 0.78 µM (≈ 0.263 µg/mL); in [6] (read-out: MIC in 7H9 ADC), 2.73 µM (≈ 0.921 µg/mL); in data set [6] (read-out: MIC in 7H9 GCas) it was 1.56 µM (≈ 0.526 µg/mL); in data set [9] (GAST/Fe, read-out: MIC GAST) it was 1.2 µM (≈ 0.405 µg/mL); in data set [9] (setting [15]), 1.56 µM (≈ 0.526 µg/mL); in data set [9] (read-out: MIC 7H9), 3.13 µM (≈ 1.06 µg/mL). Further, the MIC in data set [9] (read-out: MIC Chol) and in data set [9] (read-out: MIC GBSA/DBSA) was 3.13 µM (≈ 1.06 µg/mL) throughout. Moreover, in [4], the “reporter gene assay DNA damage” value is listed as “no”. Further, the fraction remaining at 2 h amounted to 66% in data set [5] and 77% in [8]. In data set [12], the “reduction of bacterial burden” value is around 0.5 logs. Besides, in data set [6], the “improvement in MIC compared to the initial hit 1” value was determined as 5 fold.

As to `Cc1nn2c(=O)cc(-c3ccc(Cl)c(Cl)c3)[nH]c2c1-c1ccccc1` [Compound P20, 5-(3,4-Dichlorophenyl)-2-methyl-3-phenylpyrazolo[1,5-a]pyrimidin-7(4H)-one], the figures for the IC50 in data set [1] (setting [13]) and in data set [1] (setting [14]) were 55.7 µM and above 100 µM, respectively. Besides, the amount remaining at 2 h in data set [5] was found to be 41%; in data set [8] it was 55%. The “improvement in MIC compared to the initial hit 1” value in data set [6] was found to be 5 fold. In addition, the results for the MIC in data set [6] (read-out: MIC in 7H9 ADC) and in [6] (read-out: MIC in 7H9 GCas) were 2.34 µM (≈ 0.866 µg/mL) and 1.56 µM (≈ 0.578 µg/mL), respectively.

On to `Cc1nn2c(=O)cc(-c3ccc(Cl)c(Cl)c3)[nH]c2c1-c1ccc(F)cc1` [Compound P24, 5-(3,4-Dichlorophenyl)-3-(4-fluorophenyl)-2-methylpyrazolo[1,5-a]pyrimidin-7(4H)-one], for which the half-maximal inhibitory concentration (IC50) in [1] (setting [13]) is 38.7 µM; in data set [1] (setting [14]) it was above 100 µM; in [11] it was 22.5 ± 2.1 µM. For the same compound, the “increase in potency … (MIC ratio)” value in data set [10] was at most 2 fold. Moreover, the results for the MIC in data set [3], in [6] (read-out: MIC in 7H9 ADC) and in [6] (read-out: MIC in 7H9 GCas) were 1.56 µM (≈ 0.606 µg/mL), 2.34 µM (≈ 0.908 µg/mL) and 3.12 µM (≈ 1.21 µg/mL), respectively. Further, in [6], the “improvement in MIC compared to the initial hit 1” value is listed as 8 fold.

On to `Cc1nn2c(=O)cc(-c3ccc(F)c(F)c3)[nH]c2c1-c1ccc(Cl)cc1` [Compound P25, 3-(4-Chlorophenyl)-5-(3,4-difluorophenyl)-2-methylpyrazolo[1,5-a]pyrimidin-7(4H)-one], for which the IC50 in data set [1] (setting [13]) is 52.6 µM; in [1] (setting [14]), 94.3 µM; in [11], 20.2 ± 0.8 µM. The “reduction of bacterial counts” value in data set [12] is 1.5 orders of magnitude and 2 orders of magnitude. For the same compound, the “improvement in MIC compared to the initial hit 1” value in data set [6] was 8 fold. Also, the figures for the MIC in data set [6] (read-out: MIC in 7H9 ADC) and in data set [6] (read-out: MIC in 7H9 GCas) were 1.95 µM (≈ 0.725 µg/mL) and 3.12 µM (≈ 1.16 µg/mL), respectively.

For `CC(=O)N(O)CCCCCNC(=O)CCC(=O)N(O)CCCCCNC(=O)CCC(=O)N(O)CCCCCN` [DFO, desferrioxamine, reference compound], the MIC in [10] (Mycobacterium tuberculosis, H37RV, MIC of the iron-modulating additive itself) was 250 µM. The “effect on iron uptake” value in [7] is reported as “completely inhibited uptake”.

Source of the values: paper PMC7887755, “Structure–Activity Relationships of Pyrazolo[1,5-a]pyrimidin-7(4H)-ones as Antitubercular Agents” (ACS Infectious Diseases, 2021).
